Values of other authors as cited in US20110183941A1 (priority 2010, published 2011).

Details: at room temperature

**Q.** With O=C(O)CNCP(=O)(O)O [glyphosate] as the molecule, how does the solubility read?
**A.** 1.5%
